Experimental data published in US20200038412A1, “METHODS OF TREATING ALZHEIMER'S DISEASE USING AMINOSTEROL COMPOSITIONS” (Enterin, Inc., priority 2018, published 2020).
Structures can show the parent of a compound that is named as a salt.

What was measured:
[1] = single and repeat intravenous administration, alone or in combination with other agents; cited from earlier work
[2] = Pharmacokinetics of orally administered squalamine (ENT-01) in Stage 1; format: in vivo, human; conditions: oral dosing
Experimental: PK data were collected on the 10 patients enrolled in Stage 1 and 10 patients enrolled in Stage 2 to determine the extent of systemic absorption. In Stage 1, PK data were obtained at each visit, pre-medication, at 1, 2, 4, 8 and 24 hours (Table 10). In Stage 2, PK was measured on days 1 and 6 of the randomization period pre-medication, at 1, 2, 4 and 8 hours (Table 11).
The mean Cmax, Tmax and T1/2 and AUC of the squalamine ion following squalamine (ENT-01) oral dosing for Stage 1 patients. The PK analyses are only approximate, as the lower limit of the validated concentration range was 10 ng/ml; most of the measured concentrations fell below that value. The mean Cmax, Tmax and T1/2 and AUC of the squalamine ion following squalamine (ENT-01) oral dosing for Stage 2 patients. The PK analyses are only approximate, as the lower limit of the validated concentration range was 0.5 ng/ml.

[3] = systemic administration, mice; into the duodenum through the biliary tract; cited from earlier work
mouse models of PD = conditions: cited from earlier work
[4] = test system: IPANs (intrinsic primary afferent neuron); conditions: perfusion through lumen of isolated bowel segment; cited from earlier work
[5] = test system: patients with PD and constipation; test: Phase 2 trial Stage 2: bowel function under daily oral dosing (escalation, fixed dose, wash-out); format: in vivo, human; conditions: patients with baseline ≥1 CSBM/week
Experimental: Following successful screening, all subjects underwent a 14-day run-in period where the degree of constipation was assessed through a validated daily log (Zinsmeister et al. 2013) establishing baseline CSBMs/week. Subjects with an average of <3 CSBMs/week proceeded to dosing.
In Stage 2, 34 patients were evaluated.
The primary efficacy outcome variable was whether or not a subject was a “success” or “failure”. This is an endpoint based on subject diary entries for the “fixed dose” period prior to the endpoint assessment defined as average complete stool frequency increase by 1 or more over baseline, or 3 or more complete spontaneous stools/week. The subject was deemed a “success” if s/he met one or more of the criteria listed above, otherwise the subject was deemed a “failure”. The primary analysis was based on all subjects with a baseline assessment and an assessment at the end of the “fixed-dose” period and was a comparison of the proportion of successes with 0.10 (the null hypothesis corresponding to no treatment effect).

C. elegans model of PD = conditions: C. elegans model; cited from earlier work

| Structure (SMILES) | well tolerated intravenous dose [1] | systemic absorption [2] | clearance and excretion [3] | gastro-intestinal motility (mouse models of PD; orally administered, mice with constipation due to overexpression of human αS (West et al)) | gastrointestinal dysmotility (mouse models of PD; several mouse models of PD) | effect on IPANs [4] | mean dose required for a bowel response (prokinetic dose) [5] [mg] | muscle paralysis (C. elegans model of PD) |
| --- | --- | --- | --- | --- | --- | --- | --- | --- |
| CC(C)[C@@H](CC[C@@H](C)[C@H]1CC[C@H]2[C@@H]3[C@H](O)C[C@H]4C[C@@H](NCCCNCCCCN)CC[C@]4(C)[C@H]3CC[C@]12C)OS(=O)(=O)O [squalamine dilactate salt] | at least 300 mg/m^2 | – | – | – | – | – | – | – |
| CC(C)[C@@H](CC[C@@H](C)[C@H]1CC[C@H]2[C@@H]3[C@H](O)C[C@H]4C[C@@H](NCCCNCCCCN)CC[C@]4(C)[C@H]3CC[C@]12C)OS(=O)(=O)O [squalamine] | – | not significantly absorbed into the systemic circulation | cleared by the liver and excreted as the intact molecule | stimulates gastro-intestinal motility | reverse gastrointestinal dysmotility | excitation of IPANs | 120 | complete reversal of muscle paralysis |
